# Publication PMC4077824, “Conserved Prosegment Residues Stabilize a Late-Stage Folding Transition State of Pepsin Independently of Ground States” (PLoS ONE, 2014)
# Where “and” joins values, the source holds several entries; their conditions need not be identical. Equal entries are not always repeated. Entries after “also recorded” stand apart in the source; their conditions may differ. Where no end group is shown, it is not given here.
# Key:
# [1] = molecular target: T1, refolded pepsin (Rp) (Sus scrofa, UniProt P00791); assay: PS binding to Rp (Trp-fluorescence); set-up: species or system porcine; details: for Kd: 0.6-1.2 µM Rp, 20 mM acetic acid/NaOH pH 5.3 without added NaCl, ≥10 min, Trp-fluorescence ex 295 nm, em 315 nm, mean ± SD from non-linear curve fitting, 3-5 measurements, read-out: K d (PS-Rp dissociation constant); for Kd / ΔΔGPS-Rp (change in PS-Rp binding energy upon mutation): 20°C; for ΔΔGPS-Rp (change in PS-Rp binding energy upon mutation): from K d, pH 5.3, relative to WT, ± SD by propagation of errors
# T1 construct: Only the R13 and K36 side-chains of the PS form hydrogen bonds with the mature pepsin domain; purchased Sigma (St. Louis, MO, USA)
# T1 sequence (P00791 60-385): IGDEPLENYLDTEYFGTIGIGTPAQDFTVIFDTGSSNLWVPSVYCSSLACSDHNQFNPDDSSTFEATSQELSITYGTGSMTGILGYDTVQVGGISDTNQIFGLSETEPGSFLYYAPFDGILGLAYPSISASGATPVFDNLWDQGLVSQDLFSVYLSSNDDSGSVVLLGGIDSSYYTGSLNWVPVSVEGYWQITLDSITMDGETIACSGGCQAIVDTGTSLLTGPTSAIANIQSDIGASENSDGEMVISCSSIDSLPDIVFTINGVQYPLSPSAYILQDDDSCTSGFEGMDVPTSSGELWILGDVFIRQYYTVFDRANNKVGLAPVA
# Experimental: The change in intrinsic tryptophan fluorescence of pepsin was used to measure the binding of PS to Rp and to determine the dissociation constant, K d. Rp solutions were diluted to between 0.6 and 1.2 µM in 20 mM acetic acid/NaOH buffer, pH 5.3, and mixed with various amounts of PS. After incubating the samples at 20°C for ≥10 minutes, the intrinsic tryptophan fluorescence was measured using a PTI spectrofluorophotometer (Photon Technology International, Inc., Birmingham NJ, USA), with excitation at 295 nm and emission measured at 315 nm. The change in fluorescence, ΔF i, at each PS concentration, [PS], was normalized relative to the maximum change, ΔF max, and fit according to [drawing 1] (1) where [Rp] is the total concentration of pepsin.
# PS binding to Rp was measured in buffer without added 100 mM NaCl in order to obtain more accurate measurements of K d, owing to a larger change in signal in the absence of salt. Additionally, without added 100 mM NaCl it was possible to isolate the PS-Rp binding step from the catalyzed folding step thereby improving the determination of K d.
# (§1) The change in stability of the folding transition state upon mutation was calculated using [drawing 3] (3) where k f, wt and k f, mut are the PS-catalyzed folding rate constants of the wild-type and mutant PS peptides. The change in equilibrium stability of PS-Np relative to PS-Rp upon mutation of the PS (ΔΔGPS(Np-Rp)) was determined as the difference between the changes in binding energies, using [drawing 4] (4) and [drawing 5] (5)
# (§2) Here, ΔΔGbind refers to either ΔΔGPS-Rp, determined from K d values, or ΔΔGPS-Np, determined from K i values. The Φ-value for each mutant corresponds to eq 3 divided by eq 5. Additional details are included in the supporting information section (Text S1).
# [2] = molecular target: T1, refolded pepsin (Rp); assay: PS-catalyzed folding of Rp to Np (recovery of Np activity); format: biochemical, porcine; details: for k f (PS-catalyzed folding rate constant): 1 µM Rp, 30 µM PS, pH 5.3 (20 mM acetic acid/NaOH, 100 mM NaCl), Np activity assayed at pH 1.2, 25°C with KPAEFF(NO2)AL, monoexponential fit, mean ± SD from non-linear curve fitting, 3-5 measurements; for k f (PS-catalyzed folding rate constant) / ΔΔG^‡ (change in folding activation energy upon mutation): 15°C; for ΔΔG^‡ (change in folding activation energy upon mutation): from k f, pH 5.3, relative to WT, ± SD by propagation of errors; for effect on rate of PS-catalyzed folding (in words): pH 5.3, 15°C, compared with PSwt
# Experimental: PS-catalyzed folding of Rp to Np
# PS-catalyzed folding was carried out by combining 1 µM Rp and 30 µM PS, in a volume of 100 µl, at pH 5.3 (20 mM acetic acid/NaOH with 100 mM NaCl) and 15°C. Aliquots were taken at several time intervals, diluted 20-fold in 50 mM phosphoric acid buffer, pH 1.2, incubated for 5 min at 25°C and assayed for Np activity using the KPAEFF(NO2)AL substrate. The recovery of Np activity with time, t, was fit with a monoexponential function (y = a – bexp(–k f t)) to obtain the PS-catalyzed folding rate constant, k f. Under these conditions, PS binding to Rp reached equilibrium within the dead-time of mixing (<8 sec), as judged by Trp-fluorescence.
# as §1
# Temperature dependence of PS-catalyzed folding
# PS-catalyzed folding could be measured only up to 15 °C for PSwt, as the reaction was too fast at higher temperatures. […] Given the linear temperature dependence it could be reasonably assumed that changes in activation energies (mutant – wild-type) would be unchanged from 15 °C to 20 °C, and so could be compared directly with changes in binding energies (wild-type – mutant) that were determined at 20 °C.
# [3] = molecular target: T2, native pepsin (Np) (Sus scrofa, UniProt P00791); assay: PS binding to Np (competitive inhibition of KPAEFF(NO2)AL hydrolysis); format: biochemical, porcine; details: for Ki: 10 nM Np, 20 mM acetic acid/NaOH pH 5.3, 100 mM NaCl, 5 min incubation, substrate KPAEFF(NO2)AL 0.1 mM, absorbance 300 nm, competitive model, mean ± SD from non-linear curve fitting, 3-5 measurements, read-out: K i (PS-Np inhibition constant); for Ki / ΔΔGPS-Np (change in PS-Np binding energy upon mutation): 20°C; for ΔΔGPS-Np (change in PS-Np binding energy upon mutation): from K i, pH 5.3, relative to WT, ± SD by propagation of errors; for effect on affinity for Np / PS-Np stability (in words): pH 5.3, 20°C, PS inhibition of Np, compared with PSwt
# T2 construct: Only the R13 and K36 side-chains of the PS form hydrogen bonds with the mature pepsin domain; purchased Sigma (St. Louis, MO, USA)
# T2 sequence (P00791 60-385): as above
# Experimental: PS binding to Np was determined by using the PS as a competitive inhibitor and measuring the inhibition constant, K i. Hydrolysis of the KPAEFF(NO2)AL substrate was measured by following the decrease in absorbance at 300 nm using a Biochrom Ultrospec 3100pro UV-Vis spectrophotometer (Biochrom Ltd., Cambridge, England) in 20 mM acetic acid/NaOH buffer, pH 5.3, containing 100 mM NaCl. Np samples were diluted to 10 nM and incubated with PS for 5 min at 20°C and assayed for activity. The reaction rates were normalized to the activity in the absence of PS and the data fit using the competitive inhibitor form of the Michaelis-Menten equation [drawing 2] (2) where v0 is the initial reaction rate, V max is the maximum reaction rate, [S] is the substrate concentration (fixed at 0.1 mM), [I] is the inhibitor concentration, and K M is the Michaelis constant.
# as §1, §2
# [4] = system: pepsin; details: native state relative to an intermediate state; ref [7]; cited from earlier work
# Text: General thermodynamic and kinetic features of protein folding are known, such as that the natively folded conformation of a protein is thermodynamically stabilized and that there is a relationship between topology and folding rate, which holds for both two-state and multi-state folding proteins, [3]. However, zymogen-derived proteins which require a prosegment (PS) domain to catalyze folding, such as the serine peptidases αLP [4], SGPB [5], and subtilisin [6], and the aspartic peptidase pepsin [7], deviate from the common thermodynamic and kinetic trends in protein foldin ... || Pepsin, which is derived from its zymogen pepsinogen, folds to a thermodynamically stable yet non-native form (termed refolded pepsin, Rp) upon removal from denaturing conditions. […] In the case of pepsin, Rp was characterized by a ΔG unf of 5.8 kcal/mol, a 10% increase in unordered secondary structure and identical tertiary structure to Np (both yield R g ∼20 Å).
# [5] = system: pepsin (PS-Rp, PS-TS, PS-Np complexes); assay: Φ-value analysis from PS-catalyzed folding and binding constants; set-up: species or system porcine; details: ± SD by propagation of errors; for Φ: ratio ΔΔG^‡/ΔΔGPS(Np-Rp); for ΔΔGPS(Np-Rp) (change in equilibrium stability of PS-Np relative to PS-Rp): ΔΔGPS-Np minus ΔΔGPS-Rp
# Experimental: Calculation of Φ-values from PS-catalyzed folding and binding constants
# as §1, §2
# As outlined below, ∆Gbind values are used to calculate ∆∆GPS(Np-Rp), which is the change in the equilibrium free energy difference between PS-Np and PS-Rp upon mutation of the PS (for a diagram of the folding reaction, see Fig S1)
# ΔΔGbind can refer to either ∆∆G^PS-Np(wt-mut) or ∆∆G^PS-Rp(wt-mut). Also, we can write ∆Gbind in terms of its components
# where ∆GPS, ∆Gpepsin and ∆Gsolvent refer to the change in free energy of the PS, pepsin and the solvent upon PS binding to pepsin, respectively. Combining equations S1 and S2 gives
# The contribution of each component to ∆∆Gbind will depend on the particular mutation (e.g., nature of substitution, location within folded structure, solvent accessibility). This is the general case for protein engineering analysis, in which the effects of mutations on changes in equilibrium and activation energies are the result of many individual interaction energy terms, including solvent terms, as previously explained in detail [Fersht AR, Matouschek A, Serrano L (1992) The folding of an enzyme I. Theory of protein engineering analysis of stability and pathway of protein folding. J Mol Biol 224: 771‒782]. Most importantly, there is no requirement to separate ΔΔGbind into its components in order to proceed with analysis as we are interested in the overall change in equilibrium stability of the PS-pepsin complex (∆∆GPS(Np-Rp))
# This bimolecular approach to Φ-value analysis of protein folding is qualitatively identical to Φ-value analysis as it was originally applied to the study of enzyme catalysis. As outlined previously [Fersht AR], changes in the free energy of enzyme (E) binding to substrate (S) or product (P) are used to determine the change in free energy difference between E-P and E-S upon mutation, ∆∆G^EP-ES(wt-mut), where
# As these are at the scale of global energy terms, equations S4 and S5 are equivalent and PS-catalyzed folding can be treated similarly as enzyme catalysis, in which the PS is the foldase and the denatured and natively folded protein are the substrate and product, respectively. However, protein folding reactions are more complicated to interpret at the level of individual interaction energy terms, which are more numerous [Fersht AR].
# Changes in the binding energies between PS-Rp and PS-Np upon PS mutation can then be used to determine Φ-values with the following considerations:
# 1. Free PS is unstructured (see Fig S6), so Ala mutations are expected to have a negligible effect on the stability and conformation of free PS.
# 2. Changes in binding and folding upon mutation can be localized to the loss of interactions in the immediate vicinity of the truncation mutation (i.e., larger residue mutated to Ala), and not due to gross conformational changes of the PS or changes in the binding/folding mechanism (consider as strong evidence that all of the mutant PS’s readily catalyze folding to the native, active form).
# 3. Changes in PS-Rp and PS-Np binding energies upon mutation (∆∆G^PS-Np(wt-mut) and ∆∆G^PS-Rp(wt-mut)) are measured directly, while the change in the PS-TS binding energy (∆∆G^PS-TS(wt-mut)) is the sum of ∆∆G^PS-Rp(wt-mut) and ∆∆G^‡(wt-mut).
# 4. Φ-values are calculated using […]
# [6] = pH 5.3, 20°C, compared with PSwt
Substance,Kd [1] [nM],ΔΔGPS-Rp (change in PS-Rp binding energy upon mutation) [1] [kcal/mol],"effect on affinity for Rp / PS-Rp stability (in words) [1, 6]",k f (PS-catalyzed folding rate constant) [2] [min⁻¹],ΔΔG^‡ (change in folding activation energy upon mutation) [2] [kcal/mol],Ki [3] [nM],ΔΔGPS-Np (change in PS-Np binding energy upon mutation) [3] [kcal/mol],effect on affinity for Np / PS-Np stability (in words) [3],"reduction in binding affinity for Rp [1, 6] [fold]",ΔG N-I [4] [kcal/mol],effect on rate of PS-catalyzed folding (in words) [2],Φ [5],ΔΔGPS(Np-Rp) (change in equilibrium stability of PS-Np relative to PS-Rp) [5] [kcal/mol]
LVKVPLVRKKSLRQNLIKNGKLKDFLKTHKHNPASAYFPEAAAL [K36A],720 ± 140,0.50 ± 0.13,nearly equally destabilizing to PS-Rp and PS-Np,0.28 ± 0.03,0.94 ± 0.15,113 ± 20.3,0.33 ± 0.15,nearly equally destabilizing to PS-Rp and PS-Np,–,–,–,–,–
LVKVPLVRKKSLAQNLIKNGKLKDFLKTHKHNPASKYFPEAAAL [R13A],1960 ± 290,1.08 ± 0.10,destabilized both the PS-Np and PS-Rp complexes,0.24 ± 0.02,1.02 ± 0.15,382 ± 37.2,1.03 ± 0.12,largest reduction in affinities for Np; also recorded: destabilized both the PS-Np and PS-Rp complexes,7,–,–,–,–
pepsin: Porcine pepsin A (EC 3.4.23.1); native pepsin (Np),–,–,–,–,–,–,–,–,–,-0.1,–,–,–
LVKVPAVRKKSLRQNLIKNGKLKDFLKTHKHNPASKYFPEAAAL [L6A],640 ± 90,0.43 ± 0.10,–,0.13 ± 0.01,1.36 ± 0.15,193 ± 38.8,0.64 ± 0.16,–,–,–,slowest folding rate,–,–
LVKVPLVRKKSLRQNLIKNGKLKDALKTHKHNPASKYFPEAAAL [F25A],250 ± 30,-0.12 ± 0.08,negligible effect on PS-Rp binding,0.26 ± 0.04,0.96 ± 0.17,230 ± 29.1,0.74 ± 0.13,–,–,–,–,1.1 and 1.1±0.3,0.86 ± 0.15
LVKVPLVRKKALRQNLIKNGKLKDFLKTHKHNPASKYFPEAAAL [S11A],680 ± 70,0.47 ± 0.08,–,0.18 ± 0.02,1.18 ± 0.15,270 ± 31.5,0.83 ± 0.12,–,–,–,a burst-phase in the folding kinetics was noticeable,3.2±1.4,0.36 ± 0.15
